Experimental data: patent US12522562B2, “Intestine-specific partial agonists of farnesoid X receptor and uses thereof” (EWHA DrugDesignHouse Co., Ltd., priority 2022, dated 2026)
Read-outs that look alike come from different tables or passages of the source.

Assays:
FXR = biological target: T1, FXR (Homo sapiens, UniProt Q96RI1); test: PathHunter NHR protein interaction assay, agonist mode (FXR)
T1 sequence (Q96RI1 1-486): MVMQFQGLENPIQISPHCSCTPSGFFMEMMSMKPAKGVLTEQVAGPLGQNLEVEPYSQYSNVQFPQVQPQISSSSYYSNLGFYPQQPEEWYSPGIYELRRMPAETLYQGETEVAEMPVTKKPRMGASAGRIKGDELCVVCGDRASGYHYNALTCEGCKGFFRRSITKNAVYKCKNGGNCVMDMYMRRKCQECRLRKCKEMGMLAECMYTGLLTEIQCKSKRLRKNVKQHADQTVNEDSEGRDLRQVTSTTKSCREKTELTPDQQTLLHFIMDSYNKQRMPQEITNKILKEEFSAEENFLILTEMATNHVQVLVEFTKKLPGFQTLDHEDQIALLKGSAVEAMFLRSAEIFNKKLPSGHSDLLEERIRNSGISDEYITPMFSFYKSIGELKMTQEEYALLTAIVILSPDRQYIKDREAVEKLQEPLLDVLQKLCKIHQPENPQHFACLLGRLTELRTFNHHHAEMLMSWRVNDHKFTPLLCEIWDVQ
Method: PathHunter® CHO-K1 FXR protein interaction cells were expanded from freezer stocks according to standard procedures. Cells were seeded in a total volume of 20 μL into white walled, 384-well microplates and incubated at 37° C. for the appropriate time prior to testing. Assay media contained charcoal-dextran filtered serum to reduce the level of hormones present. For agonist determination, cells were incubated with sample to induce response. […] For antagonist determination, cells were pre-incubated with antagonist followed by agonist challenge at the EC80 concentration. […] Microplates were read following signal generation with a PerkinElmer Envision™ instrument for chemiluminescent signal detection. Compound activity was analyzed using CBIS data analysis suite (ChemInnovation, CA). For agonist mode assays, percentage activity was calculated using the following formula: % Activity=100%×(mean RLU of test sample−mean RLU of vehicle control)/(mean MAX control ligand−mean RLU of vehicle control).
In this assay, two weakly complementing fragments of the β-galactosidase are expressed within stably transfected cells. The complementing fragments of the β-galactosidase are translationally fused to the C-terminus of a full-length FXR and to the steroid receptor coactivator peptide (SRCP), respectively. When bound by ligand, the FXR will migrate to the nucleus and recruit the SRCP domain, whereby complementation occurs, generating a unit of active β-galactosidase and production of chemiluminescent signal. Thus, measurement of chemiluminescent signal directly reflects FXR-coactivator interaction.

[1] = Pharmacokinetic studies of Example 11 in rats; type: in vivo, Sprague-Dawley rats
Method: To investigate whether Example 11 is indeed an intestine-selective/specific FXR agonist, its pharmacokinetic profile was evaluated. Male Sprague-Dawley rats (7-week old, 240-260 g) were purchased from Orient Bio. Inc. (Seongnam, Korea). Rats were kept in the cage maintained under a controlled environment (temperature of 23±3° C., relative humidity of 50±5%, and 12 h dark-light cycle) for at least 3 days. Rats were fasted overnight before dose administration. The Example 11 was dissolved in a mixture of DMSO, Tween 80, and 0.9% saline solution (v:v:v, 1:1:8) at a concentration of 2.5 mg/mL for intravenous injection (IV). Also, Example 11 was dissolved in corn oil for oral administration (PO). Rats were divided into two groups; IV group and PO group including at least 6 animals per group. After anesthetized with isoflurane, rats were given the dose of 5 mg/kg via IV injection or 80 mg/kg via PO administration by oral gavage into the stomach. Blood samples (approximately 0.25 mL) were obtained by subclavian vein puncture at 0, 0.033, 0.083, 0.167, 0.333, 0.667, 1, 2, 3, 5, 7, 10, and 24 h after IV injection. After PO administration, blood samples were obtained at 0, 0.083, 0.167, 0.333, 0.667, 1, 2, 3, 5, 7, 10, and 24 h post-dose. Subsequently, blood samples were collected in 1.5-mL Eppendorf tube on an ice. The tubes were centrifuged at 13500 rpm for 15 min at 4° C. to separate the plasma fraction. Then, the plasma samples were stored at […] until HPLC analysis. To prepare the samples for HPLC analysis, 5 μL of Example 11 or Example 24 and 5 μL of internal standard, Example 4 were added to 45 μL of plasma. For extraction, 45 μL of MeCN was added to the mixture. Then, the mixture was vortexed for 2 min and centrifuged at 13500 rpm for 15 min at room temperature. The 60 μL of clear supernatant was transferred to an insert. Then, the HPLC auto-injector was programmed to inject 40 μL of the sample to the HPLC system for analysis. The linearity of the calibration curve was obtained by plotting the peak area ratio (area of Example 11 or area of Example 24/area of Example 4). Pharmacokinetic parameters were calculated by non-compartmental analysis of the plasma concentration-time profiles using Winnonlin® Professional version 8.01 software (Pharsight Corporation, Mountain View, CA). Oral bioavailability (F) was calculated by the ratio of the dose-corrected area under the plasma drug concentration-time curve (AUClast) between oral administration and intravenous injection.

[2] = read-out: % max. rel. efficacy, Table 2, relative to GW4064, top conc. 3.3 μM, one experiment in duplicate
[3] = Table 4, 5 concentrations, 3-fold dilution from 3.3 μM (GW4064: 10 conc. from 10 μM), one experiment in duplicate, NA = inactive at 3.3 μM
[4] = read-out: % max. rel. efficacy, Table 4, relative to GW4064, top conc. 3.3 μM, one experiment in duplicate
[5] = rat, intravenous Example 11, 5 mg/kg

| EC50 (FXR; [3]) [µM] | Emax (FXR; [4]) [%] | Compound | other results |
| --- | --- | --- | --- |
|  |  | COC(=O)/C=C/c1cccc(N(Cc2ccc(-c3ccc(N(C)C)cc3)c(CO)c2)C(=O)C2CCCCC2)c1 [Example 1, (E)-3-(3-(cyclohexanecarbonyl-(4′-dimethylamino-2-hydroxymethylbiphenyl-4-ylmethyl)amino)phenyl)acrylic acid methyl ester] | Emax (FXR; [2]): 1% |
|  |  | COCc1cc(CN(C(=O)C2CCCCC2)c2cccc(/C=C/C(=O)OC)c2)ccc1-c1ccc(N(C)C)cc1 [Example 2, (E)-3-(3-(cyclohexanecarbonyl-(4′-dimethylamino-2-methoxymethylbiphenyl-4-ylmethyl)amino)phenyl)acrylic acid methyl ester] | EC50 (FXR): > 10 µM; Emax (FXR; [2]): 5% |
|  |  | COC(=O)/C=C/c1cccc(N(Cc2ccc(-c3ccc(N(C)C)cc3)c(C3OCCO3)c2)C(=O)C2CCCCC2)c1 [Example 3, (E)-3-(3-(cyclohexanecarbonyl-(4′-dimethylamino-2-[1,3]dioxolan-2-ylbiphenyl-4-ylmethyl)amino)phenyl)acrylic acid methyl ester] | Emax (FXR; [2]): 3% |
| 0.9 | 42 | COC(=O)/C=C/c1cccc(N(Cc2ccc(-c3ccc(N(C)C)cc3F)c(C#N)c2)C(=O)C2CCCCC2)c1 [Example 6, (E)-3-(3-((2-cyano-4′-dimethylamino-2′-fluorobiphenyl-4-ylmethyl)cyclohexanecarbonylamino)phenyl)acrylic Acid Methyl Ester] |  |
| 1.2 | 21 | COC(=O)/C=C/c1cccc(N(Cc2ccc(-c3ccc(N(C)C)cc3Cl)c(C#N)c2)C(=O)C2CCCCC2)c1 [Example 7, (E)-3-(3-((2′-chloro-2-cyano-4′-dimethylaminobiphenyl-4-ylmethyl)cyclohexane-carbonylamino)phenyl)acrylic acid methyl ester] |  |
| 1.6 | 10 | COC(=O)/C=C/c1cccc(N(Cc2ccc(-c3ccc(N(C)C)cc3C#N)c(C#N)c2)C(=O)C2CCCCC2)c1 [Example 8, (E)-3-(3-(cyclohexanecarbonyl-(2,2′-dicyano-4′-dimethylaminobiphenyl-4-ylmethyl)-amino)phenyl)acrylic acid methyl ester] |  |
| 1.2 | 40 | CCOC(=O)/C=C/c1cccc(N(Cc2ccc(-c3ccc(N(C)C)cc3)c(C#N)c2)C(=O)C2CCCCC2)c1 [Example 9, (E)-3-(3-((2-cyano-4′-dimethylaminobiphenyl-4-ylmethyl)cyclohexanecarbonylamino)phenyl)acrylic acid ethyl ester] |  |
| 0.9 | 56 | COC(=O)/C=C/c1cc(F)cc(N(Cc2ccc(-c3ccc(N(C)C)cc3)c(C#N)c2)C(=O)C2CCCCC2)c1 [Example 11, (E)-3-(3-((2-cyano-4′-dimethylaminobiphenyl-4-ylmethyl)cyclohexanecarbonylamino)-5-fluorophenyl)acrylic Acid Methyl Ester] | % max. rel. efficacy (FXR; Table 5, relative to GW4064, mean ± SEM of two or three independent experiments in duplicate): 53 ± 3^c* %; Emax (FXR; read-out: % max. rel. efficacy, Table 5, relative to GW4064, mean ± SEM of two or three independent experiments in duplicate): 53 ± 3%; bioavailability ([1]; male, Sprague-Dawley, plasma, rat, oral 80 mg/kg vs intravenous 5 mg/kg, dose-corrected AUClast ratio, read-out: F (oral bioavailability)): 4%; AUC(0-t) ([1]; male, Sprague-Dawley, rat plasma, oral dose of Example 11, 80 mg/kg in corn oil): 1500 ± 600 ng·h/mL; detected in plasma until (time after administration) [1, 5]: 20 min; metabolism after intravenous administration [1, 5]: rapidly metabolized to the corresponding carboxylic acid, Example 24; detected after (time after oral administration) ([1]; rat, oral Example 11, 80 mg/kg): 5 h |
| 1 | 47 | CCOC(=O)/C=C/c1cc(F)cc(N(Cc2ccc(-c3ccc(N(C)C)cc3)c(C#N)c2)C(=O)C2CCCCC2)c1 [Example 12, (E)-3-(3-((2-cyano-4′-dimethylaminobiphenyl-4-ylmethyl)cyclohexanecarbonylamino)-5-fluorophenyl)acrylic acid ethyl ester] |  |
| 0.8 | 20 | CC(C)OC(=O)/C=C/c1cc(F)cc(N(Cc2ccc(-c3ccc(N(C)C)cc3)c(C#N)c2)C(=O)C2CCCCC2)c1 [Example 13, (E)-3-(3-((2-cyano-4′-dimethylaminobiphenyl-4-ylmethyl)cyclohexanecarbonylamino)-5-fluorophenyl)acrylic acid isopropyl ester] |  |
| 1.5 | 23 | COC(=O)/C=C/c1cc(N(Cc2ccc(-c3ccc(N(C)C)cc3)c(C#N)c2)C(=O)C2CCCCC2)ccc1F [Example 14] |  |
| 1.3 | 23 | CCOC(=O)/C=C/c1cc(N(Cc2ccc(-c3ccc(N(C)C)cc3)c(C#N)c2)C(=O)C2CCCCC2)ccc1F [Example 15] |  |
| 1.3 | 19 | COC(=O)/C=C/c1cccc(N(Cc2ccc(-c3ccc(N(C)C)cc3)c(C#N)c2)C(=O)C2CCCCC2)c1F [Example 17, (E)-3-(3-((2-cyano-4′-dimethylaminobiphenyl-4-ylmethyl)cyclohexanecarbonylamino)-2-fluorophenyl)acrylic acid methyl ester] |  |
|  | 42 | CC(C)OC(=O)/C=C/c1cccc(N(Cc2ccc(-c3ccc(N(C)C)cc3)c(C#N)c2)C(=O)C2CCCCC2)c1F [Example 19, (E)-3-(3-((2-cyano-4′-dimethylaminobiphenyl-4-ylmethyl)cyclohexanecarbonylamino)-2-fluorophenyl)acrylic acid isopropyl ester] |  |
| 1.5 | 15 | COC(=O)/C=C/c1ccc(F)c(N(Cc2ccc(-c3ccc(N(C)C)cc3)c(C#N)c2)C(=O)C2CCCCC2)c1 [Example 20, (E)-3-(3-((2-cyano-4′-dimethylaminobiphenyl-4-ylmethyl)cyclohexanecarbonylamino)-4-fluorophenyl)acrylic acid methyl ester] |  |
| 1.6 | 9 | CCOC(=O)/C=C/c1ccc(F)c(N(Cc2ccc(-c3ccc(N(C)C)cc3)c(C#N)c2)C(=O)C2CCCCC2)c1 [Example 21, (E)-3-(3-((2-cyano-4′-dimethylaminobiphenyl-4-ylmethyl)cyclohexanecarbonylamino)-4-fluorophenyl)acrylic acid ethyl ester] |  |
|  | 3 | CC(C)OC(=O)/C=C/c1ccc(F)c(N(Cc2ccc(-c3ccc(N(C)C)cc3)c(C#N)c2)C(=O)C2CCCCC2)c1 [Example 22, (E)-3-(3-((2-cyano-4′-dimethylaminobiphenyl-4-ylmethyl)cyclohexanecarbonylamino)-4-fluorophenyl)acrylic acid isopropyl ester] |  |
| 0.9 | 46 | CN(C)c1ccc(-c2ccc(CN(C(=O)C3CCCCC3)c3cccc(/C=C/C(=O)OC4CC4)c3)cc2C#N)cc1 [Example 23, (E)-3-(3-((2-cyano-4′-dimethylaminobiphenyl-4-ylmethyl)cyclohexanecarbonylamino)phenyl)acrylic Acid Cyclopropyl Ester] |  |
